# Experiments:
# [1] = tested on: vaginal epithelium (hornification); test: Vaginal swab test of the castrated rat; format: in vivo; conditions: subcutaneous, 1 mg
# Method: One example of compounds having possible antiestrogenic effects which are not included within the scope of this invention are those disclosed in U.S. Pat. No. 4,055,641 to Benson et al which are primarily anabolic androgens. For example, the compound preferred by Benson et al, 3,17-dioxoandrost-4-ene-19-al (Column 3, lines 67-68) was tested in the vaginal swab test of the castrated rat after subcutaneous application in a dosage of 1 mg. […] In addition, the compounds of Benson et al were tested on intact (not castrated) male animals or probands. These estrogenous substances acted on the prostate by removal of androgen, not by displacing estrogen as for the antiestrogens used in this invention. The difference between the antiestrogens acting through an antagonism to estrogen receptors, i.e., those used in this invention, and those which are primariy androgenic or gestogenic in activity with some simultaneous antiestrogenic effect is also discussed in Nishino, supra.
# hyperplastic prostate = conditions: one-year study, patients; cited from earlier work
# prostate hyperplasia [2] = test: Prostate hyperplasia in younger dogs treated with estrogen or estrogen/androgen mixture, additional treatment with anti-androgen; format: in vivo, dog; conditions: additional cyproterone acetate
# Description: Also in the dog, there is a proliferation primarily of the fibromuscular portion of the prostate. It is also possible to cause the aspects of the disease in younger dogs by treatment with an estrogen or an estrogen/androgen mixture.
# [3] = tested on: Estradiol-stimulated Uterus Weight of Infantile Mice; test: Antiestrogenic effect on the estradiol-stimulated uterus weight of infantile mice (uterus growth test); format: in vivo; conditions: for Effect on uterus weight of the estradiol-stimulated uterus of infantile mice, in words: s.c., 0.3-300 μg/animal/day
# Method: Daily for 3 days 0.03 μg of estradiol and measured dosages of the antiestrogen to be tested are simultaneously applied to castrated or infantile mice subcutaneously. The animals are killed on the fourth day, and the uteri are removed and weighed without contents (See Table 1). The same test is carried out on castrated or infantile rats using 0.1 μg of estradiol.
# Antiestrogenic Effect of Ru-16117 and Tamoxifen on the Estradiol-stimulate
# d Uterus Weight of Infantile Mice
# (Mode of Administration: Subcutaneous - Number of Animals per Group:
# Ru-16117, Tamoxifen and Estradiol are dissolved in a medium consisting of
# benzylbenzoate/castor oil (1:10)
# prostate hyperplasia [4] = conditions: cited from earlier work
# [5] = 3 μg/animal/day s.c. + 0.03 μg estradiol/animal/day, 3 days
# [6] = 3 μg/animal/day s.c. + 0.03 μg estradiol/animal/day, 3 days, 8 animals per group
# [7] = 30 μg/animal/day s.c. + 0.03 μg estradiol/animal/day, 3 days
# [8] = 30 μg/animal/day s.c. + 0.03 μg estradiol/animal/day, 3 days, 8 animals per group
structure (smiles),measurement,setting,value
"C[C@]12CC[C@H]3[C@@H](CCC4=CC(=O)CC[C@@]43C=O)[C@@H]1CCC2=O [3,17-dioxoandrost-4-ene-19-al]",Estrogenous effect,[1],strongly estrogenous effect
same,Hornification of the vaginal epithelium,[1],Hornification of the vaginal epitelium took place
CC[C@H](CC[C@@H](C)[C@H]1CC[C@H]2[C@@H]3CC=C4C[C@@H](O)CC[C@]4(C)[C@H]3CC[C@]12C)C(C)C [β-sitosterol],Effectiveness in prostate hyperplasia,hyperplastic prostate,ineffective
"CC(=O)O[C@]1(C(C)=O)CC[C@H]2[C@@H]3C=C(Cl)C4=CC(=O)[C@@H]5C[C@@H]5[C@]4(C)[C@H]3CC[C@@]21C [cyproterone acetate, 6-chloro-17-hydroxy-1α,2α-methylenepregna-4,6-diene-3,20-dione acetate]",Effect on gland parenchyma,prostate hyperplasia [2],total atrophy of the gland parenchyma
same,Effect on proliferation of the interstitium,prostate hyperplasia [2],proliferation of the interstitium is not affected
C[C@]12CC[C@@H]3c4ccc(O)cc4CC[C@H]3[C@@H]1CC[C@@H]2O [Estradiol],"Uterus Weight, Average Value ± Standard Deviation","[3]; single administration of 0.03 μg estradiol once daily over 3 days, s.c. (untreated control 11.8 ± 1.3)",63.9 ± 6.2 mg
CCCCCC(=O)O[C@]1(C(C)=O)CC[C@H]2[C@@H]3CCC4=CC(=O)CC[C@@H]4[C@H]3CC[C@@]21C [gestonorone caproate],Maximum flow value (flow of urine per unit time),prostate hyperplasia [4]; in vivo,improved
same,Reduction of the size of the adenoma,prostate hyperplasia [4]; in vivo,"A marked reduction of the size of the adenoma, however, also cannot be achieved"
same,Miction period,prostate hyperplasia [4]; prolonged prior to treatment,markedly shortened
same,Effect compared with phyto-preparations,prostate hyperplasia [4]; prostate hyperplasia,a better effect
"C#C[C@]1(O)CC[C@H]2[C@@H]3CCc4cc(O)ccc4[C@H]3[C@H](OC)C[C@@]21C [Ru-16117, 11α-methoxy-17α-ethynyl-1,3,5(10)-estratriene-3,17β-diol]","% Inhibition, Decrease of Uterus Weight in Comparison to Single Estradiol Administration","[3]; 0.3 μg/animal/day s.c. + 0.03 μg estradiol/animal/day, 3 days",8%
same,"Uterus Weight, Average Value ± Standard Deviation","[3]; 0.3 μg/animal/day s.c. + 0.03 μg estradiol/animal/day, 3 days, 8 animals per group",60.0 ± 2.4 mg
same,"% Inhibition, Decrease of Uterus Weight in Comparison to Single Estradiol Administration",[3]; [5],27%
same,"Uterus Weight, Average Value ± Standard Deviation",[3]; [6],49.8 ± 1.6 mg
same,"% Inhibition, Decrease of Uterus Weight in Comparison to Single Estradiol Administration",[3]; [7],58%
same,"Uterus Weight, Average Value ± Standard Deviation",[3]; [8],34.3 ± 2.3 mg
same,Effectiveness compared with Tamoxifen,"[3]; ""somewhat more effective than Tamoxifen""",somewhat more
same,"Effect on uterus weight of the estradiol-stimulated uterus of infantile mice, in words",[3]; 3 days,pronounced dosagedependent decrease in uterus weight
"CC/C(=C(\c1ccccc1)c1ccc(OCCN(C)C)cc1)c1ccccc1 [Tamoxifen, (Z)-2-[p-(1,2-diphenyl-1-butenyl)-phenoxy]-N,N-dimethylethylamine]","% Inhibition, Decrease of Uterus Weight in Comparison to Single Estradiol Administration",[3]; [5],11%
same,"Uterus Weight, Average Value ± Standard Deviation",[3]; [6],57.5 ± 2.1 mg
same,"% Inhibition, Decrease of Uterus Weight in Comparison to Single Estradiol Administration",[3]; [7],40%
same,"Uterus Weight, Average Value ± Standard Deviation",[3]; [8],43.3 ± 3.1 mg
same,"% Inhibition, Decrease of Uterus Weight in Comparison to Single Estradiol Administration","[3]; 100 μg/animal/day s.c. + 0.03 μg estradiol/animal/day, 3 days",46%
same,"Uterus Weight, Average Value ± Standard Deviation","[3]; 100 μg/animal/day s.c. + 0.03 μg estradiol/animal/day, 3 days, 8 animals per group",39.7 ± 3.1 mg
same,"% Inhibition, Decrease of Uterus Weight in Comparison to Single Estradiol Administration","[3]; 300 μg/animal/day s.c. + 0.03 μg estradiol/animal/day, 3 days",58%
same,"Uterus Weight, Average Value ± Standard Deviation","[3]; 300 μg/animal/day s.c. + 0.03 μg estradiol/animal/day, 3 days, 8 animals per group",34.1 ± 4.3 mg
same,"Effect on uterus weight of the estradiol-stimulated uterus of infantile mice, in words",[3]; 3 days,pronounced dosagedependent decrease in uterus weight

# — US4310523A, “Combined antiestrogens and antigonadotropically effective antiandrogens for the prophylaxis and therapy of hyperplasia of the prostate” (priority 1978, dated 1982)
